Experimental data published in patent US6472152B1 (priority 1998, dated 2002).
Several values for one entry are separate records, joined by “and”; a condition that tells them apart may be missing. Identical values can stand only once. Like-named read-outs stand apart in the source and are kept apart here.

How the values were obtained:
[1] = test system: TA104 recN2-4 and TA104 pr1 strain
[2] = test system: Salmonella typhimurium TA104 recN2-4
[3] = test system: Salmonella typhimurium TA104 pr1
[4] = test system: SOS signal; conditions: normally; cited from earlier work
[5] = test system: Salmonella typhimurium TA104 recN2-4; conditions: van der Lelie et al, 1997; cited from earlier work
[6] = without S9-mix, ratio of maximal S/N values
[7] = without S9-mix, ratio of mean S/N values
[8] = without S9-mix, maximal S/N, 60-240 min
[9] = without S9-mix, within the dose-range tested

COS(C)(=O)=O [MMS]
concentration at which S/R's of rec/pri >1.5 MAX [1, 6]: 8 ppm
concentration at which S/R's of rec/pri >1.5 MEAN [1, 7]: 8 ppm
concentration at which S/R > 2 (recN2 − 4) [2, 8]: 16 ppm and 8 ppm

Coumermycine A1
Toxic (pri) [3]: +

O=C(N/N=C/c1ccc([N+](=O)[O-])o1)c1ccc(O)cc1 [Nifuroxazide]
effect at higher doses [1]: toxicity combined with genotoxicity
toxicity evaluation ([3]; light production, without S9mix): dose-dependent decrease in light production indicating toxicity
doses not toxic (S/N curves for the pr1 strain) ([3]; pr1 strain, FIG. 4): up to 0.16 ppm
Toxic (pri) [3, 9]: +

c1ccc2c(c1)ccc1ccccc12 [Phenanthrene]
concentration at which S/R's of rec/pri >1.5 MAX ([1]; S9-mix +100 μl/ml): 6.2 ppm
concentration at which S/R's of rec/pri >1.5 MEAN ([1]; S9-mix +100 μl/ml): 6.2 ppm
Toxic (pri) ([3]; S9-mix +100 μl/ml, within the dose-range tested): +
concentration at which S/R > 2 (recN2 − 4) ([2]; S9-mix +100 μl/ml): 6.2 ppm

COC(=O)N/N=C/c1c[n+]([O-])c2ccccc2[n+]1[O-] [Carbadox]
concentration at which S/R's of rec/pri >1.5 MAX [1, 6]: 0.08 ppm
concentration at which S/R's of rec/pri >1.5 MEAN [1, 7]: 0.04 ppm
concentration at which S/R > 2 (recN2 − 4) [2, 8]: 0.08 ppm

CO[C@@]12[C@H](COC(N)=O)C3=C(C(=O)C(C)=C(N)C3=O)N1C[C@@H]1N[C@@H]12 [MMC]
concentration at which S/R's of rec/pri >1.5 MEAN [1, 7]: 15.6 ppb

ClCC1CO1 (centres unmarked) [Epichlorohydrine]
genotoxicity evaluation [1]: genotoxic
S/N values in the pr1 strain [3]: ~1
toxicity evaluation [3]: not toxic in the given dose-range
S/N values in the recN2-4 strain [2]: > 2

c1ccc2c(c1)ccc1c3ccccc3ccc21 [Chrysene]
concentration at which S/R's of rec/pri >1.5 MAX ([1]; S9-mix +100 μl/ml): 10 ppm
concentration at which S/R's of rec/pri >1.5 MEAN ([1]; S9-mix +100 μl/ml): 5 ppm

Nc1ccc2c(c1)Cc1ccccc1-2 [2AF]
concentration at which S/R's of rec/pri >1.5 MAX [1]: 0.2 ppm
concentration at which S/R's of rec/pri >1.5 MEAN [1]: 0.2 ppm

[N-]=[N+]=[N-] [Sodium azide (NaN3), Sodium azide]
genotoxicity evaluation [1]: non-genotoxic
Toxic (pri) [3]: +
S/N values in the pr1 strain ([3]; Salmonella typhimurium): greater than 2
S/N, indications of toxicity obtained with time ([3]; Salmonella typhimurium): < 0.8
score in the SOS chromotest [4]: negative
S/N values in the recN2-4 strain ([2]; Salmonella typhimurium): greater than 2
response in the VITOTOX test with the recN2-4 strain alone, previously reported [5]: positive

Nc1ccc([N+](=O)[O-])cc1N [4Nitro-o-Phenylenediamine]
concentration at which S/R's of rec/pri >1.5 MAX ([1]; S9-mix +25 μl/ml): 12.5 ppm
concentration at which S/R's of rec/pri >1.5 MEAN ([1]; S9-mix +25 μl/ml): 12.5 ppm
concentration at which S/R's of rec/pri >1.5 MAX [1, 6]: 3.1 ppm
concentration at which S/R's of rec/pri >1.5 MEAN [1, 7]: 1.57 ppm
concentration at which S/R > 2 (recN2 − 4) ([2]; S9-mix +25 μl/ml): 12.5 ppm
concentration at which S/R > 2 (recN2 − 4) [2, 8]: 3.1 ppm

O=[N+]([O-])c1ccc2c3c(cccc13)-c1ccccc1-2 [3-Nitrofluoranthene]
concentration at which S/R's of rec/pri >1.5 MAX ([1]; S9-mix +25 μl/ml): 31.2 ppb
concentration at which S/R's of rec/pri >1.5 MEAN ([1]; S9-mix +25 μl/ml): 15.7 ppb
concentration at which S/R's of rec/pri >1.5 MAX [1, 6]: 31.3 ppb
concentration at which S/R's of rec/pri >1.5 MAX ([1]; without S9-mix, ratio of maximal S/N values, listed as 3Nitrofluoranthene): 0.064 ppm
concentration at which S/R's of rec/pri >1.5 MEAN [1, 7]: 15.7 ppb
concentration at which S/R's of rec/pri >1.5 MEAN ([1]; without S9-mix, ratio of mean S/N values, listed as 3Nitrofluoranthene): 0.032 ppm
concentration at which S/R > 2 (recN2 − 4) ([2]; S9-mix +25 μl/ml): 15.7 ppb
concentration at which S/R > 2 (recN2 − 4) [2, 8]: 15.7 ppb
concentration at which S/R > 2 (recN2 − 4) ([2]; without S9-mix, maximal S/N, 60-240 min, listed as 3Nitrofluoranthene): 0.032 ppm

O=C1OCCN1/N=C/c1ccc([N+](=O)[O-])o1 [Furazolidone]
concentration at which S/R's of rec/pri >1.5 MAX ([1]; Salmonella typhimurium): 0.5 ppb

COc1ccc2nc3cc(Cl)ccc3c(NCCCNCCCl)c2c1 [ICR 191 Acridine]
concentration at which S/R's of rec/pri >1.5 MAX [1]: 1.25 ppm
concentration at which S/R's of rec/pri >1.5 MEAN [1]: 0.31 ppm
Toxic (pri) [3]: −
concentration at which S/R > 2 (recN2 − 4) [2]: 0.62 ppm

CCn1cc(C(=O)O)c(=O)c2ccc(C)nc21 [Nalidixic acid]
concentration at which S/R's of rec/pri >1.5 MAX [1, 6]: 0.16 ppm
concentration at which S/R's of rec/pri >1.5 MEAN [1, 7]: 0.16 ppm
Toxic (pri) [3, 9]: +
concentration at which S/R > 2 (recN2 − 4) [2, 8]: 0.16 ppm

CCOS(C)(=O)=O [EMS]
concentration at which S/R's of rec/pri >1.5 MAX [1, 6]: 256 ppm
concentration at which S/R's of rec/pri >1.5 MEAN [1, 7]: 256 ppm
concentration at which S/R > 2 (recN2 − 4) [2, 8]: 256 ppm

O=[N+]([O-])c1ccc2c(c1)Cc1cc([N+](=O)[O-])ccc1-2 [2,7Dinitrofluoreen]
concentration at which S/R's of rec/pri >1.5 MAX [1]: 0.62 ppm
concentration at which S/R's of rec/pri >1.5 MEAN [1]: 0.62 ppm
Toxic (pri) [3]: −
concentration at which S/R > 2 (recN2 − 4) [2]: 0.62 ppm

c1ccc2c(c1)-c1cccc3cccc-2c13 [Fluoranthene]
concentration at which S/R's of rec/pri >1.5 MAX ([1]; Salmonella typhimurium): 3.1 ppm
concentration at which S/R's of rec/pri >1.5 MEAN ([1]; Salmonella typhimurium): 3.1 ppm
Toxic (pri) [3]: −
concentration at which S/R > 2 (recN2 − 4) ([2]; Salmonella typhimurium): 3.1 ppm

CCN(CC)N=O [N-Nitrosodiethylamine]
concentration at which S/R's of rec/pri >1.5 MAX ([1]; S9-mix +25 μl/ml): 120 ppm
concentration at which S/R's of rec/pri >1.5 MEAN ([1]; S9-mix +25 μl/ml): 240 ppm
concentration at which S/R > 2 (recN2 − 4) ([2]; S9-mix +25 μl/ml): 120 ppm

Nc1cccc2ccccc12 [a-Naphtylamine]
concentration at which S/R's of rec/pri >1.5 MAX [1]: 2.5 ppm
concentration at which S/R's of rec/pri >1.5 MEAN [1]: 2.5 ppm
